Each block holds one compound with its values, some of them ahead of it.
How the values were obtained:
estrogen receptor (ER) = estrogen receptor (ER) (Homo sapiens (Human), UniProt P03372); experiment: Inhibition of the binding of estrogen (E) to estrogen receptor (ER), MCF-7/ERE-luciferase reporter cells; format: cell-based; settings: MCF-7/ERE-luciferase cells, 0.1 nM estradiol, 24 hours; read-out: IC50 value of inhibition effect on the binding of E to ER
Method: The inhibition effect of the compounds on the binding of E to ER in vitro was tested by the following method.
The object of this experiment was to determine the inhibition effect of the compounds on the binding of E to ER, and the in vitro activity of the compounds was evaluated according to the IC50 value.
MCF-7/ERE-luciferase cells were inoculated into the MEM medium (hyclone, SH30024.01B) containing 10% charcoal stripped FBS (Moregate, FBSF), 1% sodium pyruvate (Sigma, Cat. No. S8636), 1% nonessential amino acids (Sigma, Cat. No. M7145) and 500 μg/ml G418 in a 96-well plate with a density of 30,000 cells/well, and the cells were incubated under the conditions of 37° C. and 5% CO2. […] After incubation for 24 hours, the medium was removed, then 0.1 nM estradiol (Sigma, Cat. No. E2758) and 10 μl of the drug diluted with the medium were added to each well, and the control group was added with DMSO. The plate was gently shaken and incubated in a incubator at 37° C., 5% CO2. After 24 hours, the cell culture medium was discarded.
The inhibition effect of the compounds of the present invention on the binding of E to ER was tested by the experiment described above.

MCF7 cells = experiment: Inhibition of the proliferation of MCF7 cells (Cell Titer-Glo); format: cell-based; settings: Homo sapiens, MCF-7 cells, 72 hours, read-out: IC50 value of inhibition effect on the proliferation of MCF7 cells
Outline: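 Viability by Cell Titer-Glo luminescence; IC50 from signal versus log concentration.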

ERα = ERα (Homo sapiens (Human), UniProt P03372); experiment: Degradation effect on ERα in MCF-7 cells (ERα Duoset ELISA); format: cell-based; settings: MCF-7 cells; read-out: IC50 value of the degradation effect on ERα
ERα, sequence (P03372 whole entry): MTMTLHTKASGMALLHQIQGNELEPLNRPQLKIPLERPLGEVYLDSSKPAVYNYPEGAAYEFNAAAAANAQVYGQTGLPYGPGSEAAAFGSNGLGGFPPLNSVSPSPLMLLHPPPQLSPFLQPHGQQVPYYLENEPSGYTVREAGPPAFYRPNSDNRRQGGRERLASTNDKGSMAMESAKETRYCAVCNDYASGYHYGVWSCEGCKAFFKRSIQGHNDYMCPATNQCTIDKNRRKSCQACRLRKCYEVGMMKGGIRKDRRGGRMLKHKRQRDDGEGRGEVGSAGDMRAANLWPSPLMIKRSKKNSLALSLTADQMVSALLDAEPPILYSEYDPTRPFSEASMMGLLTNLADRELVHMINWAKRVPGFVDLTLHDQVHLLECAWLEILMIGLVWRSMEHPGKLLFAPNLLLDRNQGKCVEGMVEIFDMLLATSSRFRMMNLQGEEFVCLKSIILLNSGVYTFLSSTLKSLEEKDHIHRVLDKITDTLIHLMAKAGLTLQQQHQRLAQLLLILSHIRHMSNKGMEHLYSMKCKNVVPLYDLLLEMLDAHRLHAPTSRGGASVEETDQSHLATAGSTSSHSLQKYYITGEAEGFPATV
Method: In order to determine the degradation effect on ER induced by the compounds of the present invention, the following method was used to determine the degradation effect of the compounds of the present invention on ER.
MCF-7 cell line (TChu 74, Cell Bank of Chinese Academy of Sciences typical culture preservation Committee)
ERα Duoset Kit (#DYC5715E, R&D System)
MCF-7 cells were incubated in DMEM/F-12 medium containing 10% FBS.
On the first day of the experiment, MCF-7 cells were resuspended in DMEM/F-12 medium containing 10% FBS treated by activated carbon, then inoculated into a 48-well plate with a density of 50,000 cells/well and incubated for 22-24 hours.
On the second day of the experiment, the test compound was diluted with medium and added to a 48-well plate. The ERα-capture antibody was diluted to 1 μg/ml with PBS, and added to a 96-well plate at 100 μl/well. The plate was sealed and coated overnight at room temperature.
On the third day of the experiment, the coated 96-well plate was washed twice with PBS, added with a sealing solution (1% BSA in PBS) at 110 μl/well and sealed for 1 hour at room temperature. The 48-well plate was washed once with PBS, and the residual liquid was removed. Then, 60 μl of lysis (6 M urea, 1 mM EDTA, 0.5% Triton X-100, 1 mM PMSF, Protease Inhibitor cocktail) was added to each well. After lysis on ice for 15 minutes, the diluent (1 mM EDTA, 0.5% TritonX-100 dissolved in PBS) was added. The cell-diluted lysate was transferred to a 96-well plate at 100 μl/well, then the plate was incubated at room temperature for 2 hours. The diluted primary antibody was added after the plate was washed 4 times with a washing liquid (PBST). After incubation for 1 hour, the 96-well plate was washed 4 times, and the second antibody was added, then the plate was incubated for 30 minutes. After the plate was washed with a washing liquid, TMB chromogenic solution was added and incubated for 15 minutes. The reaction was stopped by the addition of 1 M H2SO4, then the light absorption at 450 nm was read.

[1] = Pharmacokinetics assay in BALB/C nude mice after intragastrical administration; format: in vivo; settings: female, mouse, plasma, po, 3 mg/kg; for AUC: read-out: Area Under Curve AUC; for CL/F: read-out: Clearance CL/F (converted); for half-life: read-out: Half-Life t½ (converted); for MRT: read-out: Mean Residence Time MRT; for Cmax: read-out: Plasma Conc. Cmax
Method: BALB/C nude mice were used as test animals. The drug concentration in plasma at different time points was determined by LC/MS/MS after intragastrical administration of the compounds of Examples 10, 14, 20, 21, 57, 68, 71, 73, 74, 76 and 89 to BALB/C nude mice. The pharmacokinetic behavior of the compounds of the present invention was studied and evaluated in BALB/C nude mice.
Ninety-nine (99) female BALB/C nude mice were equally divided into 11 groups, which were purchased from SINO-BRITSH SIPPR/BK LAB. ANIMAL LTD., CO, with Certificate No.: SCXK (Shanghai) 2008-0016.
The appropriate amount of each test compound was weighed, and successively added with 9% PEG400+0.5% tween 80+0.5% PVP+90% aqueous solution of 0.5% CMC.
After an overnight fast, 99 female BALB/C nude mice were equally divided into 11 groups, and administered the test compounds intragastrically at an administration volume of 0.2 mL/10 g.
Blood (0.1 mL) was sampled (3 mice at each time point) at 0.5, 1.0, 2.0, 4.0, 6.0, 8.0, 11.0 and 24.0 hours after administration. The samples were stored in heparinized test tubes, and centrifuged for 10 minutes at 3,500 rpm to separate the blood plasma. The plasma samples were stored at −20° C. The plasma concentration of the test compounds in BALB/C nude mice after intragastrical administration was determined by LC/MS/MS.
Pharmacokinetic parameters of the compounds of Examples 10, 14, 20, 21, 57, 68, 71, 73, 74, 76 and 89 of the present invention are shown below.

estrogen receptor (ER), sequence (P03372 whole entry): as above

Compound: CC1Cc2cc3c(cc2C(c2c(F)cc(/C=C/C(=O)O)cc2F)N1CC(C)(C)F)OCCO3 [Example 2, (E)-3-(3,5-difluoro-4-((6S,8R/6R,8S)-7-(2-fluoro-2-methylpropyl)-8-methyl-2,3,6,7,8,9-hexahydro-[1,4]dioxino[2,3-g]isoquinolin-6-yl)phenyl)acrylic acid]
IC50 (estrogen receptor (ER)): 3.2 nM
IC50 (MCF7 cells): 0.49 nM
DC50 (ERα): 0.95 nM

Compound: CC1Cc2cc(-c3ccccc3)ccc2C(c2c(F)cc(/C=C/C(=O)O)cc2F)N1CC(C)(C)F [Example 59, (E)-3-(3,5-difluoro-4-((1S,3R/1R,3S)-2-(2-fluoro-2-methylpropyl)-3-methyl-6-phenyl-1,2,3,4-tetrahydroisoquinolin-1-yl)phenyl)acrylic acid]
IC50 (estrogen receptor (ER)): 5.56 nM
IC50 (MCF7 cells): 1.29 nM
DC50 (ERα): 6.25 nM

Compound: CC1Cc2cc(-c3ccc(N4CCOCC4)cc3)ccc2C(c2c(F)cc(/C=C/C(=O)O)cc2F)N1CC(C)(C)F [Example 60, (E)-3-(3,5-difluoro-4-((1S,3R/1R,3S)-2-(2-fluoro-2-methylpropyl)-3-methyl-6-(4-morpholinophenyl)-1,2,3,4-tetrahydroisoquinolin-1-yl)phenyl)acrylic acid]
IC50 (estrogen receptor (ER)): 7.12 nM
IC50 (MCF7 cells): 2.1 nM
DC50 (ERα): 7.35 nM

Compound: CC1Cc2cc(-c3ccc4[nH]ncc4c3)ccc2C(c2c(F)cc(/C=C/C(=O)O)cc2F)N1CC(C)(C)F [Example 67, (E)-3-(3,5-difluoro-4-((1S,3R/1R,3S)-2-(2-fluoro-2-methylpropyl)-6-(1H-indazol-5-yl)-3-methyl-1,2,3,4-tetrahydroisoquinolin-1-yl)phenyl)acrylic acid]
IC50 (estrogen receptor (ER)): 5.48 nM
IC50 (MCF7 cells): 0.07 nM
DC50 (ERα): 6.69 nM

Compound: CC1Cc2c(oc3cccc(F)c23)C(c2c(F)cc(/C=C/C(=O)O)cc2F)N1CC(C)(C)F [Example 73, (E)-3-(3,5-difluoro-4-((1R,3R/1S,3S)-5-fluoro-2-(2-fluoro-2-methylpropyl)-3-methyl-1,2,3,4-tetrahydrobenzofuro[2,3-c]pyridin-1-yl)phenyl)acrylic acid]
IC50 (MCF7 cells): 0.2 nM
DC50 (ERα): 0.76 nM
AUC [1]: 3950 ng·h/mL
CL/F [1]: 210 mL/min/kg
half-life [1]: 1.47 h
MRT [1]: 2.45 h
Cmax [1]: 1490 ng/mL

Compound: CCn1cc(-c2ccc3oc4c(c3c2)CC(C)N(CC(C)(C)F)C4c2c(F)cc(/C=C/C(=O)O)cc2F)cn1 [Example 76, (E)-3-(4-((1R,3R/1S,3S)-6-(1-ethyl-1H-pyrazol-4-yl)-2-(2-fluoro-2-methylpropyl)-3-methyl-1,2,3,4-tetrahydrobenzofuro[2,3-c]pyridin-1-yl)-3,5-difluorophenyl)acrylic acid]
IC50 (MCF7 cells): 0.59 nM
DC50 (ERα): 2.43 nM
AUC [1]: 26900 ng·h/mL
CL/F [1]: 31 mL/min/kg
half-life [1]: 4.53 h
MRT [1]: 5.7 h
Cmax [1]: 5460 ng/mL

The remaining lines, values ahead:

IC50 (estrogen receptor (ER)): 1.45 nM
IC50 (MCF7 cells): 0.01 nM
DC50 (ERα): 0.41 nM
Compound: CNC(=O)COc1ccc2c(c1)CC(C)N(CC(C)(C)F)C2c1c(F)cc(/C=C/C(=O)O)cc1F [Example 32, (E)-3-(3,5-difluoro-4-((1S,3R/1R,3S)-2-(2-fluoro-2-methylpropyl)-3-methyl-6-(2-(methylamino)-2-oxoethoxy)-1,2,3,4-tetrahydroisoquinolin-1-yl)phenyl)acrylic acid]

IC50 (estrogen receptor (ER)): 1.94 nM
IC50 (MCF7 cells): 1.9 nM
DC50 (ERα): 0.36 nM
Compound: CC1Cc2cc(N3CCOCC3)ccc2C(c2c(F)cc(/C=C/C(=O)O)cc2F)N1CC(C)(C)F [Example 41, (E)-3-(3,5-difluoro-4-((1S,3R/1R,3S)-2-(2-fluoro-2-methylpropyl)-3-methyl-6-morpholino-1,2,3,4-tetrahydroisoquinolin-1-yl)phenyl)acrylic acid]

IC50 (estrogen receptor (ER)): 0.87 nM
IC50 (MCF7 cells): 0.08 nM
DC50 (ERα): 2.12 nM
Compound: CC1Cc2c(ccc(-c3cnn(C)c3)c2F)C(c2c(F)cc(/C=C/C(=O)O)cc2F)N1CC(C)(C)F [Example 45, (E)-3-(3,5-difluoro-4-((1S,3R/1R,3S)-5-fluoro-2-(2-fluoro-2-methylpropyl)-3-methyl-6-(1-methyl-1H-pyrazol-4-yl)-1,2,3,4-tetrahydroisoquinolin-1-yl)phenyl)acrylic acid]

IC50 (estrogen receptor (ER)): 1.5 nM
IC50 (MCF7 cells): 0.71 nM
DC50 (ERα): 3.54 nM
Compound: CCn1cc(-c2ccc3c(c2F)CC(C)N(CC(C)(C)F)C3c2c(F)cc(/C=C/C(=O)O)cc2F)cn1 [Example 47, (E)-3-(4-((1S,3R/1R,3S)-6-(1-ethyl-1H-pyrazol-4-yl)-5-fluoro-2-(2-fluoro-2-methylpropyl)-3-methyl-1,2,3,4-tetrahydroisoquinolin-1-yl)-3,5-difluorophenyl)acrylic acid]

IC50 (estrogen receptor (ER)): 1.82 nM
IC50 (MCF7 cells): 0.64 nM
DC50 (ERα): 7.36 nM
Compound: CC1Cc2cc(-c3cnn(CCF)c3)ccc2C(c2c(F)cc(/C=C/C(=O)O)cc2F)N1CC(C)(C)F [Example 48, (E)-3-(3,5-difluoro-4-((1S,3R/1R,3S)-2-(2-fluoro-2-methylpropyl)-6-(1-(2-fluoroethyl)-1H-pyrazol-4-yl)-3-methyl-1,2,3,4-tetrahydroisoquinolin-1-yl)phenyl)acrylic acid]

IC50 (estrogen receptor (ER)): 0.82 nM
IC50 (MCF7 cells): 0.2 nM
DC50 (ERα): 0.69 nM
Compound: CC1Cc2cc(-c3cnn(C)c3)ccc2C(c2c(F)cc(/C=C/C(=O)O)cc2F)N1CC(C)(C)F [Example 55, (E)-3-(3,5-difluoro-4-((1S,3R/1R,3S)-2-(2-fluoro-2-methylpropyl)-3-methyl-6-(1-methyl-1H-pyrazol-4-yl)-1,2,3,4-tetrahydroisoquinolin-1-yl)phenyl)acrylic acid]

IC50 (estrogen receptor (ER)): 0.84 nM
IC50 (MCF7 cells): 1.35 nM
DC50 (ERα): 1.79 nM
Compound: CC1Cc2cc(-c3cnn(C4CC4)c3)ccc2C(c2c(F)cc(/C=C/C(=O)O)cc2F)N1CC(C)(C)F [Example 58, (E)-3-(4-((1S,3R/1R,3S)-6-(1-cyclopropyl-1H-pyrazol-4-yl)-2-(2-fluoro-2-methylpropyl)-3-methyl-1,2,3,4-tetrahydroisoquinolin-1-yl)-3,5-difluorophenyl)acrylic acid]

IC50 (estrogen receptor (ER)): 1.07 nM
IC50 (MCF7 cells): 0.22 nM
DC50 (ERα): 4.72 nM
Compound: C[C@@H]1Cc2cc(-c3ccc4ncccc4c3)ccc2[C@@H](c2c(F)cc(/C=C/C(=O)O)cc2F)N1CC(C)(C)F [Example 64, (E)-3-(3,5-difluoro-4-((1S,3R)-2-(2-fluoro-2-methylpropyl)-3-methyl-6-(quinolin-6-yl)-1,2,3,4-tetrahydroisoquinolin-1-yl)phenyl)acrylic acid]

From patent publication US10087191B2, “Piperidine derivative and preparation method and pharmaceutical use thereof” (Jiangsu Hengrui Medicine Co., Ltd., priority 2015, dated 2018)
